Columns and labels:
ASIC3 = conditions: cited from earlier work; for Effect on ASIC3: lipids, ref [21]
From the text: Acid-sensing ion channels (ASICs) are members of ligand-gated cation channels and belong to the degenerin/epithelial Na^+ channel superfamily. Four genes (ACCN1–ACCN4) express six subunits (ASIC1a, ASIC1b, ASIC2a, ASIC2b, ASIC3, and ASIC4), four of which can form functional homomeric channels (ASIC1a, ASIC1b, ASIC2a, and ASIC3). ASIC channels are widely expressed throughout the neurons of central and peripheral nervous systems, where they play a role in neurotransmission, synaptic plasticity, and learning, and in ischemia, neuronal cell death.

[1] = tested on: delayed rectifying K^+, voltage-gated Na^+, and L-type Ca^2+ currents; set-up: method as in PMID 29477572; conditions: ref [19]; cited from earlier work
ASIC channels [2] = conditions: ref [14],[18],[19]; cited from earlier work
From the text: All previously known activators of ASIC channels, both exogenous and endogenous, cause a persistent, slowly desensitized current that was different in kinetic parameters from currents induced by pH drops. […] Both agonists show rapid kinetics of desensitization of the currents and have a high Hill coefficient of activation. The identical efficiency with which the toxin Mamb-2 inhibits the nocistatin- and proton ...

human ASIC3 channels = tested on: human ASIC3 channels; set-up: method as in 2 sources, ref [20] = [20]; PMID 29277899; doi:10.1111/bph.14134; 20. Osmakov D.I. Koshelev S.G. Andreev Y.A. Dubinnyi M.A. Kublitski V.S. Efremov R.G. Sobolevsky A.I. Kozlov S.A. Proton-independent activation of acid-sensing ion channel 3 by an alkaloid, lindoldham ||| ref [22] = [22]; PMID 28955199; doi:10.3389/fnmol.2017.00282; 22. Osmakov D.I. Koshelev S.G. Andreev Y.A. Kozlov S.A. Endogenous Isoquinoline Alkaloids Agonists of Acid-Sensing Ion Channel Type 3 Front. Mol. Neurosci. 2017 10 282 10.3389/fnmol.2017.00282 2895519; conditions: cited from earlier work; for Effect on human ASIC3: physiological pH, prevents steady-state desensitization, ref [22]
rat ASIC3 channels = tested on: rat ASIC3 channels; set-up: method as in 2 sources, ref [20] = [20]; PMID 29277899; doi:10.1111/bph.14134; 20. Osmakov D.I. Koshelev S.G. Andreev Y.A. Dubinnyi M.A. Kublitski V.S. Efremov R.G. Sobolevsky A.I. Kozlov S.A. Proton-independent activation of acid-sensing ion channel 3 by an alkaloid, lindoldham ||| ref [22] = [22]; PMID 28955199; doi:10.3389/fnmol.2017.00282; 22. Osmakov D.I. Koshelev S.G. Andreev Y.A. Kozlov S.A. Endogenous Isoquinoline Alkaloids Agonists of Acid-Sensing Ion Channel Type 3 Front. Mol. Neurosci. 2017 10 282 10.3389/fnmol.2017.00282 2895519; conditions: cited from earlier work; for Effect on rat ASIC3: physiological pH, prevents steady-state desensitization, ref [22]
ASIC1a = experiment: Response of ASIC1a to nociceptin and orphanin; format: cell-based, rat; conditions: applied under the same conditions as nocistatin, pH 7.4, pH drop to 5.5; n = 4
Description: Oocytes expressed rASIC1a, rASIC1b, rASIC2a, and rASIC3 homomeric channels were prepared as described. Injected oocytes were kept for two–three days at 19 °C and then for up to seven days at 15 °C in ND-96 medium supplemented with gentamycin (50 μg·mL^−1) and containing (in mM): 96 NaCl, 2 KCl, 1.8 CaCl2, 1 MgCl2, and 10 HEPES titrated to pH 7.4 with NaOH. Electrophysiological recordings were performed using the GeneClamp500 amplifier (Axon Instruments, Inverurie, UK) at a holding potential of -50 mV. The data were filtered at 20 Hz and digitized at 100 Hz using the L780 AD converter (L-Card, Moscow, Russia). Microelectrodes were filled with 3 M KCl. The external bath solution was ND-96 with pH adjusted to 7.4/7.8 (10 mM HEPES) /8.5 (10 mM Tris). Nocistatin containing solutions were freshly prepared and buffered each experimental day in ND-96 bath solution (pH 7.4/7.8/8.5). Proton-activated currents through ASIC channels were elicited by application of ND-96, in which 10 mM of HEPES was substituted with 10 mM MES at pH 5.5/ 10 mM acetic acid at pH 4.5. The whole-cell recording was performed if a response to the control pH stimulus was stable in at least two replicates. […]
Figure S1. […] Currents were measured at a holding external bath pH 7.4 and were induced by a pH drop to 5.5. […]

ASIC channels [3] = conditions: Supplementary Figure S1 and ref [23]; cited from earlier work
From the text: The nocistatin in mammalian is expressed as a precursor protein coding three neuropeptides (nocistatin, nociceptin, and Orphanin FQ2). […] Nocistatin is well represented in different parts of the brain and spinal cord. […] Nocistatin was studied in animal models as a prospective molecule together with opi ...

[4] = broad range of pH, including pH > 7.4, ref [20]

## CCCCC/C=C\C/C=C\C/C=C\C/C=C\CCCC(=O)O [arachidonic acid]
ASIC3
  Effect on ASIC3: evoking a constitutive depolarizing ASIC3-mediated current

## lysophosphatidylcholine [lysophosphatidylcholine (LPC)]
ASIC3
  Effect on ASIC3: evoking a constitutive depolarizing ASIC3-mediated current

## Cc1nc(NC(=N)N)nc2ccccc12 [GMQ, 2-guanidine-4-methylquinazoline]
ASIC3; pH < 7.4, ref [18]
  Action on ASIC3: acting on ASIC3 at pH < 7.4 through a nonproton sensor
[1]
  Modulation of K^+, Na^+ and Ca^2+ currents: modulating delayed rectifying K^+, voltage-gated Na^+, and L-type Ca^2+ currents
ASIC channels [2]
  Shape of current caused by activator: slowly developing, non-desensitizing and non-selective cation current

## COc1cc2c(cc1O)[C@H](Cc1ccc(Oc3cc(C[C@@H]4NCCc5cc(OC)c(O)cc54)ccc3O)cc1)NCC2 [lindoldhamine]
Human ASIC3 channels; [4]
  Action on human ASIC3: agonist and positive allosteric modulator
Rat ASIC3 channels; [4]
  Action on rat ASIC3: agonist and positive allosteric modulator

## Oc1ccc(CC2NCCc3cc(O)c(O)cc32)cc1O (stereo not drawn) [tetrahydropapaveroline (THP), tetrahydropapaveroline]
Human ASIC3 channels
  Effect on human ASIC3: activating human and rat ASIC3 channels at physiological pH and preventing a steady-state desensitization of the channels
Rat ASIC3 channels
  Effect on rat ASIC3: activating human and rat ASIC3 channels at physiological pH and preventing a steady-state desensitization of the channels

## orphanin: neuropeptide orphanin (Orf) [PNOC_RAT 154–170] (FSEFMRQYLVLSMQSSQ; Orphanin FQ2; UniProt Q62923 154-170, looked up, fragment)
ASIC1a
  Effect on ASIC1a: no effect (neither activating nor inhibitory)
ASIC channels [3]
  Activating effects on ASIC channels: do not have activating effects on ASIC channels

## nociceptin: neuropeptide nociceptin (NC) [PNOC_RAT 135–151] (FGGFTGARKSARKLANQ; Nociceptin; UniProt Q62923 135-151, looked up, fragment)
ASIC1a
  Effect on ASIC1a: no effect (neither activating nor inhibitory)
ASIC channels [3]
  Activating effects on ASIC channels: do not have activating effects on ASIC channels

## COc1ccc(C[C@H]2c3cc(O)c(OC)cc3CCN2C)cc1O [reticuline]
Human ASIC3 channels
  Effect on human ASIC3: activating human and rat ASIC3 channels at physiological pH and preventing a steady-state desensitization of the channels
Rat ASIC3 channels
  Effect on rat ASIC3: activating human and rat ASIC3 channels at physiological pH and preventing a steady-state desensitization of the channels
